Measurements reported in patent US20230028658A1, “EXPANDED DOSAGE REGIMENS FOR INTEGRIN INHIBITORS” (Pliant Therapeutics, Inc., priority 2021, published 2023).
Where two headings read alike, the source gives them in different places.

How the values were obtained:
[1] = Safety at the higher doses of Examples B14 and B15; assay type: in vivo, human; details: healthy participants, higher doses of Examples B14 and B15 (80-640 mg)
Method: (§1) This study was a single-center, randomized, double-blind, ascending dose, placebo-controlled study in healthy participants. Each cohort included 10 participants (8 active, 2 placebo). Study participants received single ascending doses (SAD) of Compound 5 of 120, 160, 240, 320, 480, and 640 mg and multiple ascending doses (MAD) of Compound 5 of 80, 120, 160, 240, and 320 mg. Two cohorts of participants at 160 mg were studied in the MAD phase of the study.
This study was designed as a randomized, double-blind, placebo-controlled study in 48 healthy participants conducted in 2 parts. Part 1 has completed clinical conduct, and Part 2 is ongoing. In Part 1, 24 participants were randomized 1:1:1 to receive Compound 5 80 mg QD, Compound 5 160 mg QD, or placebo QD. A safety review committee reviewed the safety and PK data from Part 1 and recommended doses for Part 2. […] BALF samples were assessed for TGF-β receptor kinase activity (pSMAD2/SMAD2) in pelleted cells (primarily alveolar macrophages) and additional cell material was used to measure TGF-β signaling pathway-related gene expression levels. […] Safety was monitored via open-ended AE inquiry and clinical chemistry, hematology, vital sign, and 12-lead ECG parameters.

[2] = Multiple dose pharmacokinetics (MAD), Example B14; assay type: in vivo; details: human, plasma, oral; for AUC(0-t): read-out: AUC0−24, ng × h/mL; for Tmax: median
From the text: Accordingly, a study was designed to assess the PK of Compound 5 after a single dose and following a 6-day course of doses, at levels exceeding the dosages used in preceding Examples B12 and B13. This study was designed to assess at these higher doses aspects of the single-dose and steady-state pharmacokinetics of Compound 5.
as §1
Participants received 7 daily doses of Compound 5 80, 120, 160, 240, and 320 mg. A total of 60 participants were enrolled across the dosing groups, with 48 participants who received Compound 5 available for PK analyses. One participant discontinued study drug prior to completing all study procedures. […] Despite the substantially higher dosages, the PK parameters in the dosing groups were consistent with those observed at lower doses in Example B12. Following multiple doses of Compound 5 (oral solution) ranging from 80 to 320 mg QD, median plasma Compound 5 concentrations reached maximum levels after 3 to 4 hours. Geometric mean T1/2 remained relatively unchanged with increasing dose, ranging from 36 to 55 hours.

[3] = Plasma PK, Example B15 Part 1; assay type: in vivo; details: human, initial results; for Cmax / AUC(0-t): Day 7, geometric mean; for AUC(0-t): read-out: AUC0-24, ng × h/mL; for Tmax: Day 7, median
Method: This study was designed as a randomized, double-blind, placebo-controlled study in 48 healthy participants conducted in 2 parts. Part 1 has completed clinical conduct, and Part 2 is ongoing. In Part 1, 24 participants were randomized 1:1:1 to receive Compound 5 80 mg QD, Compound 5 160 mg QD, or placebo QD. A safety review committee reviewed the safety and PK data from Part 1 and recommended doses for Part 2. In Part 2, 24 participants were randomized 1:1:1 to receive Compound 5 320 mg QD (Compound 5 in the morning and matched placebo in the afternoon), Compound 5 160 mg twice daily (BID), or placebo BID. In both parts, samples of BALF were collected from the middle lobe or lingula via bronchoscopy prior to dosing (Day −1) and at 6 and 24 hours post morning dose on Day 7. BALF samples were assessed for TGF-β receptor kinase activity (pSMAD2/SMAD2) in pelleted cells (primarily alveolar macrophages) and additional cell material was used to measure TGF-β signaling pathway-related gene expression levels. Plasma samples were collected to measure Compound 5 concentrations and determine protein binding. Safety was monitored via open-ended AE inquiry and clinical chemistry, hematology, vital sign, and 12-lead ECG parameters.

[4] = system: lung Col1a1 expression; assay: Precision cut lung slices from human IPF explants, 3 days, Col1a1 expression; assay type: cell-based; details: human IPF PCLS, 3G9 ≥400 ng/mL, compound 5 179 nM, ALK5 inhibitor 1 μM, FIG. 6C
From the text: Explanted lung tissue was obtained from human IPF subjects and inflated with agarose as described in the preceding examples. Biopsy cores were obtained from the agarose-inflated lung tissue. The biopsy cores were subjected to precision slicing to obtain several hundred μm thick. Individual slices were distributed in a multiwell culture plate and cultured for […] under control (DMSO) and test compound conditions. The viability of the slices over the course of culturing was confirmed by WST-1 assay of mitochondrial activity.

[5] = system: human bronchial epithelial cells; assay: LAP adhesion binding assay, normal human bronchial epithelial cells (xCELLigence cell index); assay type: cell-based; details: FIG. 3A; cell index (electrical impedance)
Method: (§2) Two latency associated peptide (LAP) adhesion binding assays were devised using primary human lung cells, including normal (healthy) human bronchial epithelial cells and human lung fibroblasts (healthy and IPF).
(§3) Human bronchial epithelial cells are known to express αvβ6 integrin in culture. Human bronchial epithelial cells were prepared for the assay by dissociation with trypsin/EDTA and were then seeded at 20,000 cells per well on 96 well plates (ACEA Bioscience E-plate View, Acea Biosciences; San Diego, Calif.) previously coated with 5 μg/ml of recombinant human LAP (R&D Systems; Minneapolis, Minn.) and blocked with 4% bovine serum albumin. Cell index (electrical impedance) was measured to assess cell attachment/spreading every 3 minutes for 24 hours at 37° C./5% CO2 using the xCELLigence RTCA MP Instrument (Acea Biosciences; San Diego, Calif.).

[6] = system: IPF-derived human lung fibroblasts; assay: LAP adhesion binding assay, IPF-derived human lung fibroblasts (xCELLigence cell index); assay type: cell-based; details: FIG. 3B, adhesion to LAP
Method: as §2
as §3, with “lung fibroblasts derived from normal and IPF lung tissue” for “bronchial epithelial cells”, “αvβ1 integrin. The IPF-derived human lung fibroblasts” for “αvβ6 integrin in culture. Human bronchial epithelial cells”, “trypsin/EDTA,” for “trypsin/EDTA”, “were” for “were then”, “Calif.). […] In the assay, the IPF-derived human lung fibroblasts were separately incubated with: the αvβ1-selective small molecule inhibitor; the selective antibody αvβ6 inhibitor, 3G9; and compound 5.” for “Calif.).”

[7] = 80 mg daily, Day 7, geometric mean
[8] = 120 mg daily, Day 7, geometric mean
[9] = 160 mg daily, Day 7, two cohorts pooled, geometric mean
[10] = 240 mg daily, Day 7, geometric mean
[11] = 320 mg daily, Day 7, geometric mean

## COCCN(CCCCc1ccc2c(n1)NCCC2)CC[C@H](Nc1ncnc2ccccc12)C(=O)O [Compound 5, (S)-4-((2-methoxyethyl) (4-(5,6,7,8-tetrahydro-1,8-naphthyridin-2-yl)butyl)amino)-2-(quinazolin-4-ylamino) butanoic acid]
[1]
  adverse effects: no significant adverse effects
[2]; [7]
  Cmax: 1850 ng/mL
  AUC(0-t): 19200 ng·h/mL
[2]; 80 mg daily, Day 7, geometric mean, read-out: T1/2 (converted)
  half-life: 36.1 h
[2]; 80 mg daily, Day 7
  Tmax: 3.5 h
[2]; [8]
  Cmax: 4040 ng/mL
  AUC(0-t): 49400 ng·h/mL
[2]; 120 mg daily, Day 7, geometric mean, read-out: T1/2 (converted)
  half-life: 55.4 h
[2]; 120 mg daily, Day 7
  Tmax: 4.03 h
[2]; [9]
  Cmax: 3790 ng/mL
  AUC(0-t): 49400 ng·h/mL
[2]; 160 mg daily, Day 7, two cohorts pooled, geometric mean, read-out: T1/2 (converted)
  half-life: 41.7 h
[2]; 160 mg daily, Day 7, two cohorts pooled
  Tmax: 3 h
[2]; [10]
  Cmax: 5140 ng/mL
  AUC(0-t): 63000 ng·h/mL
[2]; 240 mg daily, Day 7, geometric mean, read-out: T1/2 (converted)
  half-life: 50.5 h
[2]; 240 mg daily, Day 7
  Tmax: 3 h
[2]; [11]
  Cmax: 5730 ng/mL
  AUC(0-t): 74500 ng·h/mL
[2]; 320 mg daily, Day 7, geometric mean, read-out: T1/2 (converted)
  half-life: 46 h
[2]; 320 mg daily, Day 7
  Tmax: 3.56 h
[2]; multiple doses 80 to 320 mg QD, read-out: Geometric mean T1/2
  half-life: 36 to 55 h
[3]; 80 mg QD
  Cmax: 1510 ng/mL
  AUC(0-t): 25400 ng·h/mL
  Tmax: 6 h
[3]; 160 mg QD
  Cmax: 2990 ng/mL
  AUC(0-t): 49900 ng·h/mL
  Tmax: 5 h
[4]
  lung Col1a1 expression: substantial, statistically significant (p<0.01 vs vehicle) decrease
[5]
  inhibition of normal bronchial epithelial cell adhesion to LAP: substantially inhibited
[6]
  inhibition of cell adhesion in the IPF-derived lung fibroblasts: substantially inhibited
